Experimental data from US20260055141A1, “COMPOSITIONS AND METHODS FOR CONTROLLING FOOD INTAKE, ENERGY EXPENDITURE, AND BODY WEIGHT FOR THE TREATMENT OF OBESITY AND METABOLIC DISEASES” (The Trustees of the University of Pennsylvania, priority 2022, published 2026).
Values joined by “and” are separate entries in the source; they are usually repeats but may differ in a detail not shown here. Identical values can stand only once. “Also recorded” adds a separate entry of the source. Non-standard residues stand in square brackets, D forms with d. No end group written: not given here.

Columns and labels:
[1] = target: T1, human GPR75 (372-540 aa region) (Homo sapiens, UniProt O95800); assay: Surface Plasmon Resonance (SPR) binding at GPR75; conditions: for Bmax ([Signal (RU)]): SPR fit; for Kd / kd / ka (1/(M*s)): SPR; for kon: read-out: ka (1/(M*s))
T1 construct: human GPR75 (372-540 aa region); purchased antibodies-online.com ABIN5709609
Description: SU75-36 binding at the human GPR75 (372-540 aa region; available on the world wide web at antibodies-online.com cat #ABIN5709609) was measured via a Nicoya Open SPR instrument using His-tagged GPR75 bound to an NTA-coated gold sensor (Nicoya cat #SEN-AU-100-10-NTA, range=4.08-204 μM) using HBSS (in-house) at 20 μL/min flow rate. Data was fit via a global, one-to-one model using Nicoya OpenSPR software.

[2] = target: T2, human GLP-1R (21-139aa region) (Homo sapiens, UniProt P43220); assay: Surface Plasmon Resonance (SPR) binding at hGLP-1R; conditions: for binding at hGLP-1R: Ex-4 positive and ODN negative control
T2 construct: human GLP-1R (21-139aa region); purchased rndsystems.com (R&D Systems) 10956-GL
Description: SU75-36, SU75-37, Ex-4, and ODN binding at the human GLP-1R (21-139aa region; available on the world wide web at rndsystems.com cat #10956-GL) was measured via a Nicoya Open SPR instrument using His-tagged hGLP-1R bound to an NTA-coated gold sensor (Nicoya cat #SEN-AU-100-10-NTA) using HBSS (in-house) at 20 μL/min flow rate. Data was fit via a global, one-to-one model using Nicoya OpenSPR software. In-house Ex-4 and ODN were used as the positive and negative controls, respectively.

[3] = His-tagged GPR75 on NTA sensor, HBSS, global one-to-one fit

Substance	Bmax ([Signal (RU)]) ([1]; curves at 10.2-102 μM peptide) [RU]	Kd [1, 3] [µM]	Kd ([1]; Nicoya OpenSPR software, one-to-one model, global fit) [µM]	kd ([1]; one-to-one model, global fit) [s⁻¹]	ka (1/(M*s)) ([1]; one-to-one model, global fit, listed as Drug 36) [M⁻¹ s⁻¹]	kon [1] [M⁻¹ s⁻¹]	binding at hGLP-1R [2]	Kd ([2]; His-tagged hGLP-1R on NTA sensor, HBSS) [µM]	Bmax ([Signal (RU)]) ([1]; curve at 4.9 μM peptide) [RU]	Bmax ([Signal (RU)]) ([1]; curve at 4.93 μM peptide) [RU]	Bmax ([Signal (RU)]) ([1]; curve at 12.3 μM peptide, listed as Drug37)	Bmax ([Signal (RU)]) ([1]; curve at 24.65 μM peptide) [RU]	Bmax ([Signal (RU)]) ([1]; curve at 49.3 μM peptide, listed as Drug37)	Bmax ([Signal (RU)]) ([1]; curve at 92.4 μM peptide) [RU]	Bmax ([Signal (RU)]) ([1]; curve at 123.23 μM peptide) [RU]	ka (1/(M*s)) ([1]; one-to-one model, global fit) [M⁻¹ s⁻¹]
H[dS]QGTFTSDLSKYLEEEVREFIWLKNGGPSDVNTDRPGLLDLK-NH2 [SU75-36]	69.54	7.76	7.73	0.00742	956	956	poor binding	182	–	–	–	–	–	–	–	–
TFTSDLSKYLEEEVREFIWLKNGGPSDVNTDRPGLLDLK-NH2 [SU75-37]	–	23.8	–	0.0141	–	592	did not bind; also recorded: does not bind	–	3.80	3.57	11.98 RU and 9.39 RU	8.98	47.66 RU and 51.69 RU	67.67	110.32	592
